{
  "source": "patent US20120142718A1",
  "about": "(priority 2007, published 2012)",
  "key": {"[1]": {"assay_type": "physicochemical"}, "μ-opioid receptor": {"target": "T1, μ-opioid receptor (Homo sapiens, UniProt P35372)", "T1 construct": "expressed in transfected cells; host or cells: HEK-293 cells", "T1 sequence (P35372 whole entry)": "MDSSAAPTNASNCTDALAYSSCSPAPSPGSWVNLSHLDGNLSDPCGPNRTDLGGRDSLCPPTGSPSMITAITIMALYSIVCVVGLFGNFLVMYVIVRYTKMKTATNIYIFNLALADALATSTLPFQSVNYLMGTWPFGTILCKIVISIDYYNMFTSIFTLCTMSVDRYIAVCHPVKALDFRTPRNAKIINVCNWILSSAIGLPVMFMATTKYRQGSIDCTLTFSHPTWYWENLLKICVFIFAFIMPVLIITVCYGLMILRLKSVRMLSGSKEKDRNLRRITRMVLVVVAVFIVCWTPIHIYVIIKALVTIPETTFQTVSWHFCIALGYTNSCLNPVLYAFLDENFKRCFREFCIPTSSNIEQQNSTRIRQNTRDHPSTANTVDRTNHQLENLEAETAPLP", "assay": "biochemical", "assay_type": "binding"}, "[2]": {"conditions": "male, Sprague-Dawley, rat, in vivo, 20 mg/kg"}},
  "note": "Where two headings read alike, the source gives them in different places.",
  "data": [
    {"compound": "CN(CCN)C(=O)Oc1ccc(C[N+]2(C)CC[C@]34c5c6ccc(O)c5OC3C(=O)CCC4[C@H]2C6)cc1.Cl.[Cl-]", "note": "(stereo partly shown) [Compound A]", "values": [
      {"measurement": "% production of hydromorphone 20 hrs", "setting": "[1]; pH 7.5", "result": 70, "unit": "%"},
      {"measurement": "% production of hydromorphone 20 hrs", "setting": "[1]; pH 10", "result": 100, "unit": "%"}
    ]},
    {"compound": "CN(CCNC(=O)[C@@H](N)CCCNC(=N)N)C(=O)Oc1ccc(C[N@@+]2(C)CC[C@]34c5c6ccc(O)c5O[C@H]3C(=O)CC[C@H]4[C@H]2C6)cc1", "note": "[Example 1]", "values": [
      {"measurement": "IC50", "setting": "μ-opioid receptor", "result": 250, "unit": "nM"}
    ]},
    {"compound": "COc1ccc2c3c1O[C@H]1C(=O)CC[C@H]4[C@@H](C2)N(C)CC[C@]314", "note": "[Hydrocodone]", "values": [
      {"measurement": "Cmax HC (ng/ml) following PO dosing", "setting": "[2]", "result": 23.6, "unit": "ng/mL"}
    ]}
  ]
}
